From patent publication US20230301300A1, “HERBICIDAL COMPOSITIONS” (SYNGENTA CROP PROTECTION AG, priority 2020, published 2023)

Legend:
Type in all cases: in vivo
[1] = system: Ipomoea hederacea (IPOHE); assay: B2 Post-Emergence Efficacy - Test 2; conditions: 15 days after application, 0-100 scale
Procedure: (§1) Seeds of a variety of test species (see Table B1) were sown in standard soil in pots. After cultivation for 12 days (post-emergence) under controlled conditions in a glasshouse (at 24/18° C. or 20/16° C., at day/night; 16 hours light; 65% humidity), the plants were sprayed with an aqueous spray solution derived from the formulation of the technical active ingredient dissolved in IF50 (see Table B2 for composition) and adjuvant (Genapol X080) was added to the spray solution at a rate of 0.2% v/v.
(§2) After application, the test plants were grown in a glasshouse under controlled conditions (as above) and watered twice daily. Herbicidal activity was evaluated 15 days after application on a 0-100 scale. The results, where 0=no damage to test plant and 100=total kill of test plant are shown below in Tables 8 to 11.

[2] = system: Kochia scoparia (KSHSC); assay: B2 Post-Emergence Efficacy - Test 2; conditions: 15 days after application, 0-100 scale
Procedure: as §1, §2

[3] = system: Beta vulgaris (BEAVA); assay: B2 Post-Emergence Efficacy - Test 2; conditions: 15 days after application, 0-100 scale
Procedure: as §1, §2

[4] = system: Avena fatua (AVEFA); assay: B2 Post-Emergence Efficacy - Test 2; conditions: 15 days after application, 0-100 scale
Procedure: as §1, §2

[5] = system: Veronica persica (VERPE); assay: B2 Post-Emergence Efficacy - Test 2; conditions: 15 days after application, 0-100 scale
Procedure: as §1, §2

[6] = system: Orysa sativa (ORYSA); assay: B2 Post-Emergence Efficacy - Test 2; conditions: 15 days after application; for Herbicidal activity ORYSA: 0-100 scale; for Herbicidal activity on a 0-100 scale, ORYSA: 0=no damage, 100=total kill
Procedure: as §1, §2

[7] = system: Brassica napus (BRSNN); assay: B2 Post-Emergence Efficacy - Test 2; conditions: 15 days after application, 0-100 scale
Procedure: as §1, §2

[8] = system: Glycine max (GLXMA); assay: B2 Post-Emergence Efficacy - Test 2; conditions: 15 days after application; for Herbicidal activity GLXMA: 0-100 scale; for Herbicidal activity on a 0-100 scale, GLXMA: 0=no damage, 100=total kill
Procedure: as §1, §2

[9] = system: Sida spinosa (SIDSP); assay: B2 Post-Emergence Efficacy - Test 2; conditions: 15 days after application, 0-100 scale
Procedure: as §1, §2

[10] = system: Amaranthus retroflexus (AMARE); assay: B2 Post-Emergence Efficacy - Test 2; conditions: 15 days after application, 0-100 scale
Procedure: as §1, §2

[11] = system: Xanthium strumarium (XANST); assay: B2 Post-Emergence Efficacy - Test 2; conditions: 15 days after application, 0-100 scale
Procedure: as §1, §2

[12] = system: Solanum nigrum (SOLNI); assay: B1 Post-Emergence Efficacy - Test 1; conditions: 1000 g/ha, after 13 days, five point scale
In short: (§3)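 Post-emergence spray at 1000 g/ha on plants grown 8 days in glasshouse (24/16 °C, 14 h light, 65% humidity), formulated in acetone/water with 0.5% Tween 20. Damage scored after 13 days on a five-point scale (5=80-100% down to 1=0-19%).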

[13] = system: Ipomoea hederacea (IPOHE); assay: B1 Post-Emergence Efficacy - Test 1; conditions: 1000 g/ha, after 13 days, five point scale
In short: as §3

[14] = system: Setaria faberi (SETFA); assay: B1 Post-Emergence Efficacy - Test 1; conditions: 1000 g/ha, after 13 days, five point scale
In short: as §3

[15] = system: Echinochloa crus-galli (ECHCG); assay: B1 Post-Emergence Efficacy - Test 1; conditions: 1000 g/ha, after 13 days, five point scale
In short: as §3

[16] = system: Amaranthus retoflexus (AMARE); assay: B1 Post-Emergence Efficacy - Test 1; conditions: 1000 g/ha, after 13 days, five point scale
In short: as §3

[17] = system: Lolium perenne (LOLPE); assay: B1 Post-Emergence Efficacy - Test 1; conditions: 1000 g/ha, after 13 days, five point scale
In short: as §3

Cc1nn(C)c(=O)c(-c2c(F)ccc(Cl)c2CCc2ccc(Cl)cc2)c1OC(=O)C(C)C [Compound 1.089, [5-[3-chloro-2-[2-(4-chlorophenyl)ethyl]-6-fluoro-phenyl]-1,3-dimethyl-6-oxo-pyridazin-4-yl] 2-methylpropanoate]
80: Herbicidal activity BEAVA ([3]; 30 g/Ha) | Herbicidal activity BEAVA ([3]; 60 g/Ha) | Herbicidal activity BEAVA ([3]; 125 g/Ha) | Herbicidal activity AVEFA ([4]; 125 g/Ha) | Herbicidal activity VERPE ([5]; 30 g/Ha) | Herbicidal activity BRSNN ([7]; 15 g/Ha) | Herbicidal activity BRSNN ([7]; 30 g/Ha) | Herbicidal activity GLXMA ([8]; 60 g/Ha) | Herbicidal activity on a 0-100 scale, GLXMA ([8]; 60 g/Ha) | Herbicidal activity SIDSP ([9]; 30 g/Ha) | Herbicidal activity AMARE ([10]; 15 g/Ha) | Herbicidal activity AMARE ([10]; 30 g/Ha) | Herbicidal activity XANST ([11]; 60 g/Ha)
90: Herbicidal activity BEAVA ([3]; 15 g/Ha) | Herbicidal activity BEAVA ([3]; 250 g/Ha) | Herbicidal activity BEAVA ([3]; 500 g/Ha) | Herbicidal activity AVEFA ([4]; 250 g/Ha) | Herbicidal activity AVEFA ([4]; 500 g/Ha) | Herbicidal activity VERPE ([5]; 60 g/Ha) | Herbicidal activity VERPE ([5]; 125 g/Ha) | Herbicidal activity BRSNN ([7]; 60 g/Ha) | Herbicidal activity BRSNN ([7]; 125 g/Ha) | Herbicidal activity BRSNN ([7]; 250 g/Ha) | Herbicidal activity BRSNN ([7]; 500 g/Ha) | Herbicidal activity SIDSP ([9]; 60 g/Ha) | Herbicidal activity AMARE ([10]; 60 g/Ha) | Herbicidal activity XANST ([11]; 30 g/Ha) | Herbicidal activity XANST ([11]; 125 g/Ha) | Herbicidal activity XANST ([11]; 250 g/Ha)
30: Herbicidal activity AVEFA ([4]; 15 g/Ha)
70: Herbicidal activity AVEFA ([4]; 30 g/Ha) | Herbicidal activity AVEFA ([4]; 60 g/Ha) | Herbicidal activity VERPE ([5]; 15 g/Ha) | Herbicidal activity GLXMA ([8]; 30 g/Ha) | Herbicidal activity on a 0-100 scale, GLXMA ([8]; 30 g/Ha)
10: Herbicidal activity KCHSC ([2]; 15 g/Ha) | Herbicidal activity ORYSA ([6]; 125 g/Ha) | Herbicidal activity on a 0-100 scale, ORYSA ([6]; 125 g/Ha)
50: Herbicidal activity KCHSC ([2]; 60 g/Ha) | Herbicidal activity ORYSA ([6]; 500 g/Ha) | Herbicidal activity on a 0-100 scale, ORYSA ([6]; 500 g/Ha)
60: Herbicidal activity KCHSC ([2]; 125 g/Ha) | Herbicidal activity KCHSC ([2]; 250 g/Ha) | Herbicidal activity KCHSC ([2]; 500 g/Ha)
100: Herbicidal activity IPOHE ([1]; 15 g/Ha) | Herbicidal activity IPOHE ([1]; 30 g/Ha) | Herbicidal activity IPOHE ([1]; 60 g/Ha) | Herbicidal activity IPOHE ([1]; 125 g/Ha) | Herbicidal activity IPOHE ([1]; 250 g/Ha) | Herbicidal activity IPOHE ([1]; 500 g/Ha) | Herbicidal activity VERPE ([5]; 250 g/Ha) | Herbicidal activity VERPE ([5]; 500 g/Ha) | Herbicidal activity GLXMA ([8]; 250 g/Ha) | Herbicidal activity on a 0-100 scale, GLXMA ([8]; 250 g/Ha) | Herbicidal activity GLXMA ([8]; 500 g/Ha) | Herbicidal activity on a 0-100 scale, GLXMA ([8]; 500 g/Ha) | Herbicidal activity SIDSP ([9]; 125 g/Ha) | Herbicidal activity SIDSP ([9]; 250 g/Ha) | Herbicidal activity SIDSP ([9]; 500 g/Ha) | Herbicidal activity AMARE ([10]; 125 g/Ha) | Herbicidal activity AMARE ([10]; 250 g/Ha) | Herbicidal activity AMARE ([10]; 500 g/Ha) | Herbicidal activity XANST ([11]; 500 g/Ha)
5 (5=80-100%): percentage damage caused to the plant, SOLNI [12] | percentage damage caused to the plant, IPOHE [13] | percentage damage caused to the plant, SETFA [14] | percentage damage caused to the plant, ECHCG [15] | percentage damage caused to the plant, AMARE [16] | percentage damage caused to the plant, LOLPE [17]
0: Herbicidal activity ORYSA ([6]; 15 g/Ha) | Herbicidal activity on a 0-100 scale, ORYSA ([6]; 15 g/Ha) | Herbicidal activity ORYSA ([6]; 30 g/Ha) | Herbicidal activity on a 0-100 scale, ORYSA ([6]; 30 g/Ha) | Herbicidal activity ORYSA ([6]; 60 g/Ha) | Herbicidal activity on a 0-100 scale, ORYSA ([6]; 60 g/Ha)
20: Herbicidal activity KCHSC ([2]; 30 g/Ha) | Herbicidal activity ORYSA ([6]; 250 g/Ha) | Herbicidal activity on a 0-100 scale, ORYSA ([6]; 250 g/Ha)
